Assay [1] concerns the target hypoxanthine phosphoribosyltransferase (Trypanosoma cruzi). Kind of assay: Kinetic inhibition constant of compound with Trypanosoma cruzi Hypoxanthine Phosphoribosyltransferase (HPRT).
Assay [2] has as its target hypoxanthine phosphoribosyltransferase (Salmonella typhimurium). Kind of assay: Kinetic inhibition constant of compound with bacterial Hypoxanthine Phosphoribosyltransferase (HPRT).

Consider `O=[N+]([O-])c1cc2c3ccccc3ccc2c2ccccc12` [6-Nitro-chrysene], for which the Ki in assay [1] turned out to be 6.7 µM.
In assay [1], `Nc1cc2c3ccccc3ccc2c2ccccc12` [Chrysen-6-ylamine] showed a Ki of 0.6 µM.
Molecule `Fc1cc2c3ccccc3ccc2c2ccccc12` [6-Fluoro-chrysene] returned a Ki in assay [1] of 2.8 µM.
With `O=C(Nc1cc2c3ccccc3ccc2c2ccccc12)C(Cl)Cl` [2,2-Dichloro-N-chrysen-6-yl-acetamide], the Ki is 0.5 µM in assay [1] and > 25 µM in assay [2].

For the origin of these results see BindingDB's records for doi:10.1021/jm030061i (University of Connecticut, 2003).
